“And” between values parts separate entries of the source, which are not always exact repeats. Equal entries are not always repeated.
What was measured:
[1] = system: P. falciparum NF54 asexual parasites; assay: asexual parasite growth inhibition assay (SYBR Green); type: cell-based, Plasmodium falciparum; settings: 72 h, mean ± SD, n = 3
Description: (§1) Asexual parasites of P. falciparum strain NF54 were cultured as described previously. Briefly, parasites were maintained in RPMI 1640 medium containing 10% positive human serum + erythrocytes (5% haematocrit), 2.5% sodium bicarbonate and 11 µg/mL gentamicin at 37 °C with 5% CO2, 5% O2 and 90% N2. Gametocyte cultures were set up at 0.1% parasitaemia and on days 9–10 treated with 50 mM N-acetylglucosamine (NAG) to block further asexual growth. Stage III–V gametocytes were isolated by Percoll density gradient centrifugation on day 12 and returned to culture for 24 h before being used in the assay. At the time of the assay over 73% of the gametocytes were stage IV or V (Additional file 1). HepG2 cells (ATCC, cat. no. 77400) were cultured in 175-cm^2 tissue culture flasks with 30 ml growth medium at 37 °C in a 5% CO2 and 5% O2 humidified atmosphere. Growth medium was made with Dulbecco’s Modified Eagle Medium with 10% fetal bovine serum (FBS). Growth medium was replaced every other day and cells were passaged at 75% confluence.
Drug activity on asexual stage parasites was tested using a SYBR Green assay as described previously. Briefly, 2.5 μL/well complete culture medium was dispensed into each well of 1536-well plates using the Multidrop Combi followed by 23 nL compound transferring using the NX-TR Pintool. Parasites were diluted to 0.5% parasitaemia in complete culture medium with 2% haematocrit and drugs diluted in DMSO (≤0.5%). The pre-diluted parasites were dispensed into a 1536-well plate (2.5 μL/well). After 72 h incubation under the standard culture conditions, 5 μL/well of lysis buffer containing SYBR Green I was added to the parasite culture and incubated for 30 min at room temperature. The fluorescence of each well was measured in a fluorescence detection mode (Ex = 490 nm, Em = 520 nm) using a ViewLux plate reader (PerkinElmer).

[2] = system: HepG2 cells; assay: HepG2 cytotoxicity assay (AlamarBlue); type: cell-based, human; settings: HepG2 cells, 72 h, AlamarBlue, up to 46 µM
Description: as §1
Drug activity on HepG2 was tested using an AlamarBlue assay as previously described. Briefly, 5 μL/well of HepG2 cells were dispensed with a seeding density of 1000 cells/well using the Multidrop Combi. 23 nL compound was transferred using the NX-TR Pintool. After 72 h incubation under the standard culture condition, 5 μL/well of 2X AlamarBlue dye was added to the cells, the plates were incubated for 2 h at 37 °C with 5% CO2 and then were read in a fluorescence detection mode (Ex = 525 nm, Em = 598 nm) on a ViewLux plate reader.

[3] = target: T1, PIK3CD (Homo sapiens, UniProt O00329); assay: Kinome scan profile; type: binding; settings: 10 μM
T1 construct: purchased DiscoverX (KINOMEscan)
T1 sequence (O00329 1-1044): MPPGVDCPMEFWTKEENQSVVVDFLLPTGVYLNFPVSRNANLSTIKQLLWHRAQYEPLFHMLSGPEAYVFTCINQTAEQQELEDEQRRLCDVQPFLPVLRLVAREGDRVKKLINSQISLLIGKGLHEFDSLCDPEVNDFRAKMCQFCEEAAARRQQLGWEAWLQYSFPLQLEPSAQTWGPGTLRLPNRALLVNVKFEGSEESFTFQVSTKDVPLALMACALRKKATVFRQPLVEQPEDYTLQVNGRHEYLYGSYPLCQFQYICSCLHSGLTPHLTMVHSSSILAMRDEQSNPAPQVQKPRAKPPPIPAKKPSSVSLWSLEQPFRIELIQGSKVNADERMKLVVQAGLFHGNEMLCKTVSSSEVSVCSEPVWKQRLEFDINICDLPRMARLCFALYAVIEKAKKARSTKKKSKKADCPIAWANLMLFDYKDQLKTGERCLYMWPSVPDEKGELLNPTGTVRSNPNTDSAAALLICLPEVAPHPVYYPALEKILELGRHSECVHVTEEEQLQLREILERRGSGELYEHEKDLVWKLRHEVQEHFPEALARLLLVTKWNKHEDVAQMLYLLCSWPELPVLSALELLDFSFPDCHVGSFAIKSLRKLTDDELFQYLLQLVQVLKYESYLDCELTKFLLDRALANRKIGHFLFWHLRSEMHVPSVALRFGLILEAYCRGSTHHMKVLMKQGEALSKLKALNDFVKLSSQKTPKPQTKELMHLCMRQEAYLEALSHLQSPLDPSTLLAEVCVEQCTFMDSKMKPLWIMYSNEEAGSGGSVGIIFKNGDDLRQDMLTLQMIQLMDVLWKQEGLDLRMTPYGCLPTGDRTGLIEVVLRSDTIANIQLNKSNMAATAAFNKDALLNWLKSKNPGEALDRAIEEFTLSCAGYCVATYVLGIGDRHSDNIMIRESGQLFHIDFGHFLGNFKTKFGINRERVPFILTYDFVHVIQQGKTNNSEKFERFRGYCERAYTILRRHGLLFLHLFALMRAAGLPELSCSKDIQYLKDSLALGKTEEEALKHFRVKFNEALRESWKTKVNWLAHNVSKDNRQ

[4] = target: T2, ERBB3 (Homo sapiens, UniProt P21860); assay: Kinome scan profile; type: binding; settings: 10 μM
T2 construct: purchased DiscoverX (KINOMEscan)

[5] = target: T3, TYK2(JH1domain-catalytic) (Homo sapiens, UniProt P29597); assay: Kinome scan profile; type: binding; settings: 10 μM
T3 construct: TYK2(JH1domain-catalytic); purchased DiscoverX (KINOMEscan)
T3 sequence (P29597 897-1176 limits assumed): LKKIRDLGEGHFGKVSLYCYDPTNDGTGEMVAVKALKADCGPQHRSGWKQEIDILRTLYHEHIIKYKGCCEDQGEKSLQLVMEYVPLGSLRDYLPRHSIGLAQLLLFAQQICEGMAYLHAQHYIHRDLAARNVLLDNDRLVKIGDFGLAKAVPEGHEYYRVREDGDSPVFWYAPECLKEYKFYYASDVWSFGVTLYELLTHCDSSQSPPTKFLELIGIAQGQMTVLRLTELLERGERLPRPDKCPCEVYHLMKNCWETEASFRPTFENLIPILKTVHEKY

[6] = target: T4, RSK2(Kin.Dom.2-C-terminal) (Homo sapiens, UniProt P51812); assay: Kinome scan profile; type: binding; settings: 10 μM
T4 construct: RSK2(Kin.Dom.2-C-terminal); purchased DiscoverX (KINOMEscan)

[7] = target: T5, JAK2(JH1domain-catalytic) (Homo sapiens, UniProt O60674); assay: Kinome scan profile; type: binding; settings: 10 μM
T5 construct: JAK2(JH1domain-catalytic); purchased DiscoverX (KINOMEscan)

[8] = target: T6, MYLK (Homo sapiens, UniProt Q15746); assay: Kinome scan profile; type: binding; settings: 10 μM
T6 construct: purchased DiscoverX (KINOMEscan)
T6 sequence (Q15746 whole entry): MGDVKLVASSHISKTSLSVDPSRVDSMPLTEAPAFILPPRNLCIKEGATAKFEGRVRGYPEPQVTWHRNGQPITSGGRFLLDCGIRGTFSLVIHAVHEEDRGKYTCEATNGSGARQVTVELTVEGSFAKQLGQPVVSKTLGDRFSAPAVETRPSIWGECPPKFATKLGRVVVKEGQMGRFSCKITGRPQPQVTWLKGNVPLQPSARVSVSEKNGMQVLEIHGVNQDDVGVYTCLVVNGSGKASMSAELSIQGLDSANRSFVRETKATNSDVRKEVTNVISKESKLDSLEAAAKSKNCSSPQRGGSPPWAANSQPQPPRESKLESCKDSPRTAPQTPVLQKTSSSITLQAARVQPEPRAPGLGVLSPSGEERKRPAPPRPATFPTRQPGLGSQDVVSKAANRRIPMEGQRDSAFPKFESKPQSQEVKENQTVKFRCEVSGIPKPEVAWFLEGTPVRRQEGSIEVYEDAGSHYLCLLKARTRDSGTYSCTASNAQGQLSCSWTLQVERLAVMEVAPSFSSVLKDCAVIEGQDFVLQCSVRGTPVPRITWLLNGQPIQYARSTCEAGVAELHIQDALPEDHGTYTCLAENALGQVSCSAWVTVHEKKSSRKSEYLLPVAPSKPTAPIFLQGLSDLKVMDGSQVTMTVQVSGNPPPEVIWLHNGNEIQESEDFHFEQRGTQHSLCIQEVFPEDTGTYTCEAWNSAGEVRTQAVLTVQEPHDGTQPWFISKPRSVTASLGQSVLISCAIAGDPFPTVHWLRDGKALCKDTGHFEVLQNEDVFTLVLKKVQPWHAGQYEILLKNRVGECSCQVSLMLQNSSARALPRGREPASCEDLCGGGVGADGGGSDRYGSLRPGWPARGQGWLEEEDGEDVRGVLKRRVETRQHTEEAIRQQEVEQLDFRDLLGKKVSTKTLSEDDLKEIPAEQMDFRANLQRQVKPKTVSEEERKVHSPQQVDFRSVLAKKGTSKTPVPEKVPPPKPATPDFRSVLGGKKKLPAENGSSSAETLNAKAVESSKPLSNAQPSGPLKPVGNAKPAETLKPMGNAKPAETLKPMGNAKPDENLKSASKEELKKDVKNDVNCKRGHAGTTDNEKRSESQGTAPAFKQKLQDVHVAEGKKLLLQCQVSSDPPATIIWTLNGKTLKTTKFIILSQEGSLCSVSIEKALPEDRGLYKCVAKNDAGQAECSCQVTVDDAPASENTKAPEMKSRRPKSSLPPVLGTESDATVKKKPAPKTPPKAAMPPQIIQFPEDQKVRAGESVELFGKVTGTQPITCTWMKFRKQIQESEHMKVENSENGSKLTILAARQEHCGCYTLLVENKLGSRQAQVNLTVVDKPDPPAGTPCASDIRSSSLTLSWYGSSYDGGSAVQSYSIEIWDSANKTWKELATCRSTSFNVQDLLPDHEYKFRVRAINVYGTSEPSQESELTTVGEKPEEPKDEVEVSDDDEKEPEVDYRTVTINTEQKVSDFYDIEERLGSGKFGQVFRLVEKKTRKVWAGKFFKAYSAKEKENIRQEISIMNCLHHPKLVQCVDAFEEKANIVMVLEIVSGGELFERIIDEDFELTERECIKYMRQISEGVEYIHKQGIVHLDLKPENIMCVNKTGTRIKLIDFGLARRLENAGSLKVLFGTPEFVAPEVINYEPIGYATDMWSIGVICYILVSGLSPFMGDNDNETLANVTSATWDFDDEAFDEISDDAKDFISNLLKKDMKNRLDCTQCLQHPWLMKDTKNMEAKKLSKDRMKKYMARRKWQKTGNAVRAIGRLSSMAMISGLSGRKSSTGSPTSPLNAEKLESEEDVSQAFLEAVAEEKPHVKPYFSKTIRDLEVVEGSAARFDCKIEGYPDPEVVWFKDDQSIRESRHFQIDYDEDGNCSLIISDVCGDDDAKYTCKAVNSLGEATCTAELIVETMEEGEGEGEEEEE

T2 sequence (P21860 20-1342): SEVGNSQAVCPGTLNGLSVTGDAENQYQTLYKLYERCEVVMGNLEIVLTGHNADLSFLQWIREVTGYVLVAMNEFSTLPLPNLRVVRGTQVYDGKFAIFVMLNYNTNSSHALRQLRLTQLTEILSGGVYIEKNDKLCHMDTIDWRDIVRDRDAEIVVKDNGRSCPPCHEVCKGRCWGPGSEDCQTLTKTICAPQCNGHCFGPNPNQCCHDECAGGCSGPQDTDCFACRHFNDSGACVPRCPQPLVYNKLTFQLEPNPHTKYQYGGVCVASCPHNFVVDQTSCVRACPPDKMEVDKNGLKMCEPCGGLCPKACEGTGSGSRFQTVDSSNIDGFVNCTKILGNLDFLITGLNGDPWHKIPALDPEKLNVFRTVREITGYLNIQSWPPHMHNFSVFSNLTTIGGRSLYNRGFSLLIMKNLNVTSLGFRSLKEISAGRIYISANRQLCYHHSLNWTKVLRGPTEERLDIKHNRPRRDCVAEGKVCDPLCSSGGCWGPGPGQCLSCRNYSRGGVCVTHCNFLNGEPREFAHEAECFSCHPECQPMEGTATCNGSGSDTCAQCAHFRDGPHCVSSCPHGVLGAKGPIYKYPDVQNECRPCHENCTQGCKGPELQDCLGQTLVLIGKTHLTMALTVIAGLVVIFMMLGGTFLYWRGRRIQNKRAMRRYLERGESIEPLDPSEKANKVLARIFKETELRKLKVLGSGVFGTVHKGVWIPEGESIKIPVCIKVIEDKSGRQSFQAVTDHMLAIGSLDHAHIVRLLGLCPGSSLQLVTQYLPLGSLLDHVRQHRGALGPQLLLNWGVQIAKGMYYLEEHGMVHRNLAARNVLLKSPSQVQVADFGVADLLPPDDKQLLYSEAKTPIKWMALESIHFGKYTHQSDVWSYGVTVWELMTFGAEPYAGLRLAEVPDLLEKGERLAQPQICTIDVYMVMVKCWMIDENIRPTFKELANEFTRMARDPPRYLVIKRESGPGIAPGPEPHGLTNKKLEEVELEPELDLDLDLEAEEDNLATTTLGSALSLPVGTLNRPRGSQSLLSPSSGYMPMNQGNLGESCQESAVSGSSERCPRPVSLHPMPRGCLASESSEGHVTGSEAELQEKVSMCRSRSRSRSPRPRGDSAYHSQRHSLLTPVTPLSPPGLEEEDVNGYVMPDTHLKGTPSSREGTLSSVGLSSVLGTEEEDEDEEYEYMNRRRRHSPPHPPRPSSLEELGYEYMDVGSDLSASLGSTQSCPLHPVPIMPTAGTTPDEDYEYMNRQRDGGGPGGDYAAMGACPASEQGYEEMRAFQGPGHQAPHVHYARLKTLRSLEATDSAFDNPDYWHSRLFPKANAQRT
T4 sequence (P51812 422-679 limits assumed): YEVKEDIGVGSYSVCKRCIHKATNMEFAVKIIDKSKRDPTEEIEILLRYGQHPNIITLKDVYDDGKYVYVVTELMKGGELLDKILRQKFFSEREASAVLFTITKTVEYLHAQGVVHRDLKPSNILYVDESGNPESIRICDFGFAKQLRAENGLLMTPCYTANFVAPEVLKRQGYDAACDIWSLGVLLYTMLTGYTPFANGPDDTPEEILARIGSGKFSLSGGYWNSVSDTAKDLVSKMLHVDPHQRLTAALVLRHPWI
T5 sequence (O60674 849-1124 limits assumed): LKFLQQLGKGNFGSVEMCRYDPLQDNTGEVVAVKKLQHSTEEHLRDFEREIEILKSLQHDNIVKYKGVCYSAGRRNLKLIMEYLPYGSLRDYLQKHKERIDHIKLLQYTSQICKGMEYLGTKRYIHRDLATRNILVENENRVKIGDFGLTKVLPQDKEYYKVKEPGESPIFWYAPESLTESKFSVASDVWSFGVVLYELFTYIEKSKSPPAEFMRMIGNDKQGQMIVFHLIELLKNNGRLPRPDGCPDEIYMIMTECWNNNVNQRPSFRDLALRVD

CCN1CCN(Cc2c(O)ccc3c(=O)c(Oc4ccccc4C(C)C)c(C(F)(F)F)oc23)CC1 [NCGC00100599]
IC50 [1]: 339 nM and 340 nM
HepG2, IC50 (dash = less than 25% cytotoxicity) [2]: – (Indicates compounds with less than 25% cytotoxicity at up to 46 µM)
% Control, PIK3CD [3]: 10 % Control
% Control, ERBB3 [4]: 17 % Control
% Control, TYK2(JH1domain-catalytic) [5]: 19 % Control
% Control, RSK2(Kin.Dom.2-C-terminal) [6]: 29 % Control
% Control, JAK2(JH1domain-catalytic) [7]: 31 % Control
% Control, MYLK [8]: 31 % Control
